In patent US20060110451A1, “Formulations of [1,4]diazepino[6,7,1-IJ]quinoline derivatives” (priority 2004, published 2006):
Like-named read-outs stand apart in the source and are kept apart here.

Assay: Ascending multiple dose pharmacokinetics of enteric coated capsules in healthy subjects
Format: in vivo, human
Conditions: for Tmax / half-life / AUC(0-t) / Cmax / AUC(0-inf): human, plasma
Method: Ascending multiple doses of 25, 50, 75, 100, 150, and 250 mg Compound A.HCl were administered as twice-daily regimen (q12h) for 14 days in cohorts of 8 healthy subjects (6 active and 2 placebo). Blood samples for Compound A.HCl analysis were obtained on days 1 and 14 within 2 hours of test article administration and at various time points from 0.5 to 48 hours after test article administration. Doses were administered orally after an overnight fast of at least 10 hours on these 2 days. Trough PK samples were collected on days 7, 10, and 12 to assess whether steady-state had been reached.
A total of 48 subjects contributed pharmacokinetic data for this analysis. […] FIGS. 4A and 4B show the relationship between Cmax vs. dose and AUC vs. dose, respectively.

Cl.c1cc2c3c(c1)[C@H]1CCC[C@H]1CN3CCNC2 [Compound A.HCl, (9aR,12aS)-4,5,6,7,9,9a,10,11,12,12a-decahydrocyclopenta[c][1,4]diazepino[6,7,1-ij]quinoline hydrochloride]
steady-state Cl/F lower in comparison to the lower dose groups (250 mg q12h dose): 54-60%
time of minor secondary peak (day 14 (steady state), most subjects, all dose groups): 24 to 28 h
dose-proportionality of single dose and steady-state AUC and Cmax (dose range 25 to 150 mg q12h): approximately linear dose-proportionality
Tmax (oral, healthy subjects, single and multiple dose administration, enteric-coated formulation, 25-250 mg, read-out: mean Tmax): 4 to 6 h
half-life (oral, multiple dose, read-out: mean elimination t1/2): 6 to 8 h
half-life (oral, single dose, read-out: mean elimination t1/2): 8 to 11 h
AUC(0-t) (po, 25 mg, healthy subjects, multiple oral doses (q12 h) 25 mg, day 14, read-out: AUCss (AUC0-12) (Geom. Mean)): 8 ng·h/mL
AUC(0-t) (po, 25 mg, healthy subjects, multiple oral doses (q12 h) 25 mg, day 14, read-out: AUCss (AUC0-12) (Mean)): ~8.73 ng·h/mL
Cmax (po, 25 mg, healthy subjects, multiple oral doses (q12 h) 25 mg, day 14, read-out: Cmax (Geom. Mean)): 1.16 ng/mL
Cmax (po, 25 mg, healthy subjects, multiple oral doses (q12 h) 25 mg, day 14, read-out: Cmax (Mean)): 1.22 ng/mL
Tmax (po, 25 mg, healthy subjects, multiple oral doses (q12 h) 25 mg, day 14, read-out: Tmax (Geom. Mean)): 3.7 h
Tmax (po, 25 mg, healthy subjects, multiple oral doses (q12 h) 25 mg, day 14, read-out: Tmax (Mean)): 4 h
half-life (po, 25 mg, healthy subjects, multiple oral doses (q12 h) 25 mg, day 14, read-out: t1/2 (Geom. Mean) (converted)): 6.25 h
half-life (po, 25 mg, healthy subjects, multiple oral doses (q12 h) 25 mg, day 14, read-out: t1/2 (Mean) (converted)): 6.35 h
Cmax (po, 25 mg, healthy subjects, single oral dose 25 mg, day 1, read-out: Cmax (Geom. Mean)): 0.81 ng/mL
Cmax (po, 25 mg, healthy subjects, single oral dose 25 mg, day 1, read-out: Cmax (Mean)): 0.87 ng/mL
Tmax (po, 25 mg, healthy subjects, single oral dose 25 mg, day 1, read-out: Tmax (Geom. Mean)): 5 h
Tmax (po, 25 mg, healthy subjects, single oral dose 25 mg, day 1, read-out: Tmax (Mean)): 5.2 h
AUC(0-t) (po, 50 mg, healthy subjects, multiple oral doses (q12 h) 50 mg, day 14, read-out: AUCss (AUC0-12) (Geom. Mean)): 25.3 ng·h/mL
AUC(0-t) (po, 50 mg, healthy subjects, multiple oral doses (q12 h) 50 mg, day 14, read-out: AUCss (AUC0-12) (Mean)): ~26.5 ng·h/mL
Cmax (po, 50 mg, healthy subjects, multiple oral doses (q12 h) 50 mg, day 14, read-out: Cmax (Geom. Mean)): 3.27 ng/mL
Cmax (po, 50 mg, healthy subjects, multiple oral doses (q12 h) 50 mg, day 14, read-out: Cmax (Mean)): 3.39 ng/mL
Tmax (po, 50 mg, healthy subjects, multiple oral doses (q12 h) 50 mg, day 14, read-out: Tmax (Geom. Mean)): 5.6 h
Tmax (po, 50 mg, healthy subjects, multiple oral doses (q12 h) 50 mg, day 14, read-out: Tmax (Mean)): 5.7 h
half-life (po, 50 mg, healthy subjects, multiple oral doses (q12 h) 50 mg, day 14, read-out: t1/2 (Geom. Mean) (converted)): 7.58 h
half-life (po, 50 mg, healthy subjects, multiple oral doses (q12 h) 50 mg, day 14, read-out: t1/2 (Mean) (converted)): 7.64 h
AUC(0-inf) (po, 50 mg, healthy subjects, single oral dose 50 mg, day 1, read-out: AUC0-∞ (Geom. Mean)): 22.8 ng·h/mL
AUC(0-inf) (po, 50 mg, healthy subjects, single oral dose 50 mg, day 1, read-out: AUC0-∞ (Mean)): 23.5 ng·h/mL
Cmax (po, 50 mg, healthy subjects, single oral dose 50 mg, day 1, read-out: Cmax (Geom. Mean)): 2.29 ng/mL
Cmax (po, 50 mg, healthy subjects, single oral dose 50 mg, day 1, read-out: Cmax (Mean)): 2.35 ng/mL
Tmax (po, 50 mg, healthy subjects, single oral dose 50 mg, day 1, read-out: Tmax (Geom. Mean)): 5 h
Tmax (po, 50 mg, healthy subjects, single oral dose 50 mg, day 1, read-out: Tmax (Mean)): 5.3 h
half-life (po, 50 mg, healthy subjects, single oral dose 50 mg, day 1, read-out: t1/2 (Geom. Mean) (converted)): 9.69 h
half-life (po, 50 mg, healthy subjects, single oral dose 50 mg, day 1, read-out: t1/2 (Mean) (converted)): 10.7 h
AUC(0-t) (po, 75 mg, healthy subjects, multiple oral doses (q12 h) 75 mg, day 14, read-out: AUCss (AUC0-12) (Geom. Mean)): 24.1 ng·h/mL
AUC(0-t) (po, 75 mg, healthy subjects, multiple oral doses (q12 h) 75 mg, day 14, read-out: AUCss (AUC0-12) (Mean)): ~24.9 ng·h/mL
Cmax (po, 75 mg, healthy subjects, multiple oral doses (q12 h) 75 mg, day 14, read-out: Cmax (Geom. Mean)): 2.92 ng/mL
Cmax (po, 75 mg, healthy subjects, multiple oral doses (q12 h) 75 mg, day 14, read-out: Cmax (Mean)): 3.05 ng/mL
Tmax (po, 75 mg, healthy subjects, multiple oral doses (q12 h) 75 mg, day 14, read-out: Tmax (Geom. Mean)): 6.3 h
Tmax (po, 75 mg, healthy subjects, multiple oral doses (q12 h) 75 mg, day 14, read-out: Tmax (Mean)): 6.3 h
half-life (po, 75 mg, healthy subjects, multiple oral doses (q12 h) 75 mg, day 14, read-out: t1/2 (Geom. Mean) (converted)): 6.38 h
half-life (po, 75 mg, healthy subjects, multiple oral doses (q12 h) 75 mg, day 14, read-out: t1/2 (Mean) (converted)): 6.45 h
AUC(0-inf) (po, 75 mg, healthy subjects, single oral dose 75 mg, day 1, read-out: AUC0-∞ (Geom. Mean)): 16.8 ng·h/mL
AUC(0-inf) (po, 75 mg, healthy subjects, single oral dose 75 mg, day 1, read-out: AUC0-∞ (Mean)): 16.9 ng·h/mL
Cmax (po, 75 mg, healthy subjects, single oral dose 75 mg, day 1, read-out: Cmax (Geom. Mean)): 1.56 ng/mL
Cmax (po, 75 mg, healthy subjects, single oral dose 75 mg, day 1, read-out: Cmax (Mean)): 1.6 ng/mL
Tmax (po, 75 mg, healthy subjects, single oral dose 75 mg, day 1, read-out: Tmax (Geom. Mean)): 5.3 h
Tmax (po, 75 mg, healthy subjects, single oral dose 75 mg, day 1, read-out: Tmax (Mean)): 5.5 h
half-life (po, 75 mg, healthy subjects, single oral dose 75 mg, day 1, read-out: t1/2 (Geom. Mean) (converted)): 7.93 h
half-life (po, 75 mg, healthy subjects, single oral dose 75 mg, day 1, read-out: t1/2 (Mean) (converted)): 8.22 h
AUC(0-t) (po, 100 mg, healthy subjects, multiple oral doses (q12 h) 100 mg, day 14, read-out: AUCss (AUC0-12) (Geom. Mean)): 49.2 ng·h/mL
AUC(0-t) (po, 100 mg, healthy subjects, multiple oral doses (q12 h) 100 mg, day 14, read-out: AUCss (AUC0-12) (Mean)): ~62.8 ng·h/mL
Cmax (po, 100 mg, healthy subjects, multiple oral doses (q12 h) 100 mg, day 14, read-out: Cmax (Geom. Mean)): 6.45 ng/mL
Cmax (po, 100 mg, healthy subjects, multiple oral doses (q12 h) 100 mg, day 14, read-out: Cmax (Mean)): 7.81 ng/mL
Tmax (po, 100 mg, healthy subjects, multiple oral doses (q12 h) 100 mg, day 14, read-out: Tmax (Geom. Mean)): 5.3 h
Tmax (po, 100 mg, healthy subjects, multiple oral doses (q12 h) 100 mg, day 14, read-out: Tmax (Mean)): 5.5 h
half-life (po, 100 mg, healthy subjects, multiple oral doses (q12 h) 100 mg, day 14, read-out: t1/2 (Geom. Mean) (converted)): 7.72 h
half-life (po, 100 mg, healthy subjects, multiple oral doses (q12 h) 100 mg, day 14, read-out: t1/2 (Mean) (converted)): 7.86 h
AUC(0-inf) (po, 100 mg, healthy subjects, single oral dose 100 mg, day 1, read-out: AUC0-∞ (Geom. Mean)): 47.2 ng·h/mL
AUC(0-inf) (po, 100 mg, healthy subjects, single oral dose 100 mg, day 1, read-out: AUC0-∞ (Mean)): 55.5 ng·h/mL
Cmax (po, 100 mg, healthy subjects, single oral dose 100 mg, day 1, read-out: Cmax (Geom. Mean)): 3.64 ng/mL
Cmax (po, 100 mg, healthy subjects, single oral dose 100 mg, day 1, read-out: Cmax (Mean)): 4.38 ng/mL
Tmax (po, 100 mg, healthy subjects, single oral dose 100 mg, day 1, read-out: Tmax (Geom. Mean)): 5.3 h
Tmax (po, 100 mg, healthy subjects, single oral dose 100 mg, day 1, read-out: Tmax (Mean)): 5.5 h
half-life (po, 100 mg, healthy subjects, single oral dose 100 mg, day 1, read-out: t1/2 (Geom. Mean) (converted)): 9.31 h
half-life (po, 100 mg, healthy subjects, single oral dose 100 mg, day 1, read-out: t1/2 (Mean) (converted)): 9.9 h
AUC(0-t) (po, 150 mg, healthy subjects, multiple oral doses (q12 h) 150 mg, day 14, read-out: AUCss (AUC0-12) (Geom. Mean)): 90.7 ng·h/mL
AUC(0-t) (po, 150 mg, healthy subjects, multiple oral doses (q12 h) 150 mg, day 14, read-out: AUCss (AUC0-12) (Mean)): ~110 ng·h/mL
Cmax (po, 150 mg, healthy subjects, multiple oral doses (q12 h) 150 mg, day 14, read-out: Cmax (Geom. Mean)): 10.7 ng/mL
Cmax (po, 150 mg, healthy subjects, multiple oral doses (q12 h) 150 mg, day 14, read-out: Cmax (Mean)): 13.1 ng/mL
Tmax (po, 150 mg, healthy subjects, multiple oral doses (q12 h) 150 mg, day 14, read-out: Tmax (Geom. Mean)): 5 h
Tmax (po, 150 mg, healthy subjects, multiple oral doses (q12 h) 150 mg, day 14, read-out: Tmax (Mean)): 5.2 h
